{"source": "patent US20140227392A1", "about": "“BEER AND RELEVANT PRODUCTION METHOD” (FARCHIONI OLII - S.P.A., priority 2011, published 2014)", "origin": "cited, not measured here", "conditions": "compared with its precursor daidzein", "data": [{"compound": "Oc1ccc([C@H]2COc3cc(O)ccc3C2)cc1", "note": "[S-(−) equol]", "values": [{"measurement": "antioxidant activity", "result": "significantly greater in antioxidant activity than its precursor"}]}]}
